The source made the active and inactive calls. No rule for the calls is given here.
experiment: inhibitors of TNFa-induced VCAM1 expression, confirmation, imaging, TNFa stimulus, retest and dose response (AID 1013); conditions: TNFa-stimulated cells, VCAM1 expression imaging; at 2 µM; stronger effect = higher value;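 as to cell count: compound on cells 1 h before TNFa then 24 h more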

| Compound | inhibition |
| --- | --- |
| COc1ccccc1N(C)S(=O)(=O)c1ccc(C(=O)NCC(C)C)cc1 | -6.5% (inactive) |
| O=C(c1ccc2c(c1)ncn2C1CCCCC1)N1CCC2(CC1)OCCO2 | 4.9% (inactive) |
| O=C(O)c1c[nH]c2ccc(S(=O)(=O)N3CCOCC3)cc12 | 1.4% (inactive) |
| O=C(c1ccc2snnc2c1)N1CCSCC1 | 8.5% (inactive) |
| Cc1cc(N2CCOCC2)c2c(N)c(C)cc(C)c2n1 | -11% (inactive) |
| CCOC(=O)Cc1cc(-c2ccc(O)cc2)nc2ccc3ccccc3c12 | 35.9% (inactive) |
| CC(NC(=O)COC(=O)Cc1ccsc1)C1CC2CCC1C2 (centres undefined) | 3.4% (inactive) |
| COc1cc(NC(=O)CN2C(=O)NC(C)(CC(C)C)C2=O)cc(OC)c1 (centres undefined) | 11.6% (inactive) |
| CCC(C)C1C(C#N)=C(N)Oc2n[nH]c(-c3ccccc3)c21 (centres undefined) | -12.6% (inactive) |
| CCCOc1ccc(/C(O)=C2/C(=O)C(=O)N(CCOC)C2c2cccnc2)cc1 (centres undefined) | 8.7% (inactive) |
| C=CCOC(=O)C1=C(C)OC(N)=C(C#N)C12C(=O)N(CN1CCOCC1)c1ccccc12 (centres undefined) | -12.1% (inactive) |
| O=C(Nc1ncc2c(n1)CC(c1ccco1)CC2=O)c1ccc(Cl)cc1 (centres undefined) | -0.3% (inactive) |
| O=C(N/N=C/c1ccc[nH]1)c1sc2ccccc2c1Cl | 13.1% (inactive) |
| Cc1cccc(N(CC(=O)N/N=C/c2ccc(OCC(=O)NCc3ccco3)cc2)S(C)(=O)=O)c1C | -4.7% (inactive) |
| CC(C)Sc1nc2c(c(=O)n1-c1ccc(F)cc1)SCC2 | 7.4% (inactive) |
| CCC(=O)Nc1cccc(C(=O)/C=C/c2cc(Br)ccc2OC)c1 | 10% (inactive) |
| O=S(=O)(c1cccs1)N1CCN(CC(O)COc2cccc(Br)c2)CC1 (centres undefined) | 4.8% (inactive) |
| COc1ccc(OC)c2sc(NC(=O)CCS(=O)(=O)c3ccccc3)nc12 | 23% (inactive) |
| O=C(CN1CCC(c2nc3ccccc3s2)CC1)NCc1cccs1 | -3.1% (inactive) |
| COc1cc2[nH]cc(C(=O)NCCc3ccccc3)c(=O)c2cc1OC | -5.6% (inactive) |
| COc1cc(C2Nc3ccc4ncccc4c3C3=C2C(=O)CCC3)cc(OC)c1O (centres undefined) | -11.9% (inactive) |
| CCOC(=O)c1cnn(-c2nc3c(C)cccc3s2)c1C | 11% (inactive) |
| NCCN1CCN(CCN)CC1 | -8.3% (inactive) |
| CCCOC(=O)c1ccc(NC(=O)Oc2ccccc2)cc1 | -2.5% (inactive) |
| CCOc1ccccc1/C=N/Nc1ccccc1[N+](=O)[O-] | 5.1% (inactive) |
| O=C(Cc1ccc(-n2cccc2)cc1)NC1CCCCCC1 | 5.8% (inactive) |

| Compound | inhibition |
| --- | --- |
| COc1ccc(CC(=O)Nc2ccc(-c3noc(-c4cccc(OC)c4)n3)cc2)cc1 | 5.5% (inactive) |
| CCNc1nc(NCC)n2c(SCc3ccc(F)cc3)nnc2n1 | -6.3% (inactive) |
| NC(=O)COC(=O)CCCc1c[nH]c2ccccc12 | 0.5% (inactive) |
| CC(N)Cc1ccccc1Sc1ccc(O)cc1 (centres undefined) | -14.6% (inactive) |
| Cc1ccc(S(=O)(=O)Nc2cc(C(=O)NCCN3CCCC3)ccc2N2CCCCC2)cc1 | -2.2% (inactive) |
| O=C1C(Cc2ccccc2)NC(=S)N1c1ccccc1 (centres undefined) | 9.6% (inactive) |
| O=C(O)c1cccc(S(=O)(=O)Nc2ccccc2Cl)c1 | -5.6% (inactive) |
| CS(=O)(=O)N(CC(=O)NCc1ccccc1Cl)Cc1ccccc1 | -0.5% (inactive) |
| CCC(=O)N1c2ccc(S(=O)(=O)CCC(=O)N3CCn4c3nc3ccccc34)cc2CC1C (centres undefined) | -14.1% (inactive) |
| Nc1cc(=O)nc(SCc2ccccc2)n1Cc1ccco1 | 7% (inactive) |
| COC(=O)c1[nH]c2cc(OC)ccc2c1NC(=O)CN1CCC(C(N)=O)(N2CCCCC2)CC1 | -3.9% (inactive) |
| C=C(C)c1cccc(C(C)(C)NC(=O)Nc2ncccn2)c1 | -2.7% (inactive) |
| O=C(COc1ccccc1-c1ccccc1)N/N=C/c1cccc2ccccc12 | 76.4% (inactive) |
| O=C1CC(c2cc(Br)ccc2F)c2cc3c(cc2N1)CCC3 (centres undefined) | 24.3% (inactive) |
| CC(=O)Nc1nc2cc3c(cc2s1)OCO3 | -1.4% (inactive) |
| COc1ccc(-c2cc3ccc(OCc4nn[nH]n4)cc3oc2=O)cc1OC | -18.3% (inactive) |
| CCCCSc1nc(C)cc(SCC(=O)N/N=C/c2cccc(OC)c2O)n1 | 22.8% (inactive) |
| O=C(O)c1cc2nc3c(c(C(F)(F)F)n2n1)CCc1ccccc1-3 | 4.4% (inactive) |
| Cc1n[nH]c(=O)nc1NCc1ccccc1 | -9.9% (inactive) |
| NC(=O)c1c(NC(=O)Cc2cccs2)sc2c1CCC2 | -16.5% (inactive) |
| O=c1ccc(Oc2nc(N3CCOCC3)nc(N3CCOCC3)n2)nn1-c1ccccc1 | 9% (inactive) |
| CC(C)c1nnc(NC(=O)CCC(=O)N2CCN(C3CCCCC3)CC2)s1 | 2.9% (inactive) |
| CCN(CC)S(=O)(=O)c1ccc(NC(=O)C(C)N(c2ccc(OC)cc2)S(C)(=O)=O)cc1 (centres undefined) | -3.6% (inactive) |
| CCOC(=O)C1=C(c2ccccc2)OC(N)=C(C#N)C1c1ccco1 (centres undefined) | 13.3% (inactive) |
| N#Cc1nc(-c2ccco2)oc1N1CCOCC1 | -13.5% (inactive) |
| CSc1nnc2n(-c3ccccc3)c(=O)c3c4c(sc3n12)CCC4 | -8.1% (inactive) |

| Compound | inhibition |
| --- | --- |
| Cc1csc(NC(=O)CSc2nnc(-c3ccc(S(=O)(=O)N4CCCC4)cc3)o2)n1 | 12.9% (inactive) |
| O=C1C2CCCN2C(c2cccnc2)N1c1ccc(Cl)c(Cl)c1 (centres undefined) | -2.6% (inactive) |
| Cn1nc(C(=O)OCC(=O)N2CCc3ccccc32)c2ccccc2c1=O | 4.8% (inactive) |
| Nc1nnc(SCC(=O)NCc2ccc3c(c2)OCO3)s1 | 0.2% (inactive) |
| CCN(CC)C(=O)CN(c1ccc(Cl)cc1)S(=O)(=O)c1ccccc1 | -3.1% (inactive) |
| CC(C)(C)NC(=O)CSc1nsc(SCC(=O)NC(C)(C)C)c1C#N | 1.8% (inactive) |
| O=C(CS(=O)(=O)c1cn(Cc2cccc(F)c2)c2ccccc12)N1CCCCC1 | -4.4% (inactive) |
| COc1ccc(-c2nc(-c3ccc(NC(=O)c4ccc(Br)o4)cc3)no2)cc1OC | 11.9% (inactive) |
| COc1cccc(C(=O)COc2cccc(NC(=O)c3cccc([N+](=O)[O-])c3)c2)c1 | 1.6% (inactive) |
| Cc1cccc(OCCN2CSC(=S)N(C)C2)c1 | -5.7% (inactive) |
| Cc1ccc(NC(=O)c2oc3c(c2C)C(=O)CC(C)(C)C3)cc1 | -0.4% (inactive) |
| CSc1ccc(CNC2CN3CCC2CC3)cc1 (centres undefined) | 6.9% (inactive) |
| CCOC(=O)Cn1nnnc1CN(CCc1ccccc1)Cc1cc2cc(CC)ccc2[nH]c1=O | 3.3% (inactive) |
| CCN1CCN(Cc2c(C)[nH]c3ccc(C(=O)OC)cc3c2=O)CC1 | 8.5% (inactive) |
| C(=N\Nc1nc2ccccc2s1)/c1cccs1 | 5.1% (inactive) |
| Cc1nc(NC(C)C)c2oc3ccccc3c2n1 | 18.8% (inactive) |
| CCOC(=O)c1ccc(NC(=O)Cn2nnc(-c3ccccc3)n2)cc1 | -10% (inactive) |
| C[n+]1ccc(/C=C/c2ccc(Br)cc2)cc1 | 13.1% (inactive) |
| O=C(CN1CCCCCC1=O)OCc1ncc(-c2ccccc2)o1 | 9.7% (inactive) |
| O=C(NCc1ccco1)C1CC(=O)N(c2ccc(F)cc2)C1 (centres undefined) | 6% (inactive) |
| Cc1nc2ccccc2n1CCCOc1ccccc1 | -0.7% (inactive) |
| CCOc1ccc(C(=O)C(c2ccccc2)N2CCOCC2)cc1 (centres undefined) | -17.7% (inactive) |
| Cc1nc(S(=O)(=O)N(C)Cc2ccccc2)c(C#N)c(C)c1Cl | 1.7% (inactive) |
| CCOc1ccccc1N1CCN(C(=O)c2cccc(-c3ccc(O)cc3)c2)CC1 | -6.4% (inactive) |
| CCC1=NC(c2ccccc2Cl)N(O)C1(C)C (centres undefined) | 5.5% (inactive) |
| COc1ccc(CSc2nc3ccccc3[nH]2)cc1 | -2.5% (inactive) |

| Compound | inhibition |
| --- | --- |
| Cc1nnc(SCc2cn3ccsc3n2)n(N)c1=O | -9.6% (inactive) |
| CSc1nc2sc(-c3ccccc3)cc2c(=O)n1N | 8.1% (inactive) |
| Cc1cc(C)cc(OCC(=O)Nc2nonc2NC(=O)COc2cc(C)cc(C)c2)c1 | 12.1% (inactive) |
| C=CCCCOc1ccc(C(=O)O)cc1 | 8.3% (inactive) |
| Cn1c(SCC(=O)NC2CCCCC2)nnc1-c1cccc(N)c1 | 4.3% (inactive) |
| COc1cc(/C=N/NC(=O)Nc2ccccc2)ccc1OCCOc1ccccc1C | 33.1% (inactive) |
| Cc1c(Cl)cccc1-n1ccnc1SCC(=O)O | -7.8% (inactive) |
| Cn1c(NC(=O)C2c3ccccc3Oc3ccccc32)cc(=O)n(C)c1=O | -2.7% (inactive) |
| CCN(Cc1cc2cc(C)ccc2[nH]c1=O)C(=O)c1cccc(OC)c1 | -11.5% (inactive) |
| CCCNS(=O)(=O)c1ccc2c(c1)CCCN2C(C)=O | -18.5% (inactive) |
| CSc1ccc(S(=O)(=O)Nc2ccc3c4c(cccc24)CC3)cc1 | 17.6% (inactive) |
| COc1cccc(C(=O)Nc2cccc(-c3nc4ncccc4o3)c2C)c1 | 2.2% (inactive) |
| CCOc1ccc(N2C(=O)CSC2c2ccncc2)cc1 (centres undefined) | 0% (inactive) |
| COc1ccccc1C(=O)Nc1ccc2c(c1)nc(CN1CCN(C(C)=O)CC1)n2C | 0.2% (inactive) |
| CCNC(=O)CCn1nc(-c2ccc(Cl)cc2)c2ccccc2c1=O | -0.3% (inactive) |
| CCn1c(SCC(=O)Nc2cc(C)on2)nnc1-c1ccccc1 | -7.4% (inactive) |
| CCCc1sc(N/N=C/c2ccccn2)nc1-c1ccc(Br)cc1 | 7.8% (inactive) |
| O=C1Nc2ccc(S(=O)(=O)N3CCOCC3)c3cccc1c23 | -7.2% (inactive) |
| CCOC(=O)N1CCN(C(=O)COc2ccc(Cl)cc2C)CC1 | 5.2% (inactive) |
| CCOC(=O)C1C(=O)NC(N2CCCCC2)=NC1c1ccco1 (centres undefined) | -0.9% (inactive) |
| Cc1cc(C)cc(OCCCCCNCCO)c1 | -9.9% (inactive) |
| COc1ccc(Cn2c(CCC(=O)O)nc3cccnc32)cc1 | 1.7% (inactive) |
| Cc1cccc(N=C2NC(=O)CS2)c1C | -7.6% (inactive) |
| O=C(O)Cc1ccc(NC(=O)C2CC=CCC2C(=O)O)cc1 (centres undefined) | 4.4% (inactive) |

same assay, conditions: TNFa-stimulated cells, VCAM1 expression imaging; cell count; at 10 µM; stronger effect = lower value

| Compound | cell count |
| --- | --- |
| CCOC(=O)Cc1cc(-c2ccc(O)cc2)nc2ccc3ccccc3c12 | 100% |
| O=C(COc1ccccc1-c1ccccc1)N/N=C/c1cccc2ccccc12 | 87.5% |

Reference: PubChem BioAssay AID1013 (Columbia University Molecular Screening Center, 2008)
